Several values for one entry are separate records, joined by “and”; a condition that tells them apart may be missing. Identical values can stand only once. Inconclusive results and toxic doses are left out.
Tested on: L1210 leukemia ip in BDF1 mice, survival T/C
Experiment: NCI In Vivo Anticancer Drug Screen. Data for tumor model L1210 Leukemia (intraperitoneal) in B6D2F1 (BDF1) mice
Details: endpoint: mean survival time, higher = longer survival
In short: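 Tumor cells were implanted, animals were treated, and survival was followed. The result divides the treated measurement by the vehicle-control measurement.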

CC[C@@]1(O)C(=O)OCc2c1cc1n(c2=O)Cc2cc3ccccc3nc2-1
T/C (dose: 0.05 mg/kg/injection, schedule: Q01DX Z (ip), vehicle: carboxymethylcellulose (CMC)): 94 % of control
T/C (dose: 0.1 mg/kg/injection, schedule: Q01DX Z (ip), vehicle: carboxymethylcellulose (CMC)): 97 % of control
T/C (dose: 0.12 mg/kg/injection, schedule: Q01DX009 (ip), vehicle: saline): 105 % of control and 108 % of control
T/C (dose: 0.12 mg/kg/injection, schedule: Q#A X Z (ip), vehicle: saline): 122 % of control
T/C (dose: 0.13 mg/kg/injection, schedule: Q01DX Z (ip), vehicle: water): 105 % of control
T/C (dose: 0.2 mg/kg/injection, schedule: Q01DX Z (ip), vehicle: saline): 118 % of control
T/C (dose: 0.22 mg/kg/injection, schedule: Q01DX Z (ip), vehicle: water): 103 % of control
T/C (dose: 0.22 mg/kg/injection, schedule: Q03DX Z (ip), vehicle: saline): 103 % of control
T/C (dose: 0.25 mg/kg/injection, schedule: Q01DX006 (iv), vehicle: saline): 103 % of control
T/C (dose: 0.25 mg/kg/injection, schedule: Q01DX009 (ip), vehicle: saline): 94 % of control
T/C (dose: 0.25 mg/kg/injection, schedule: Q01DX Z (im), vehicle: saline): 108 % of control
T/C (dose: 0.25 mg/kg/injection, schedule: Q01DX Z (sc), vehicle: saline): 113 % of control
T/C (dose: 0.25 mg/kg/injection, schedule: Q## X Z (ip), vehicle: saline): 106 % of control
T/C (dose: 0.25 mg/kg/injection, schedule: Q#A X Z (ip), vehicle: saline): 154 % of control
T/C (dose: 0.33 mg/kg/injection, schedule: Q03DX Z (ip), vehicle: saline): 111 % of control
T/C (dose: 0.36 mg/kg/injection, schedule: Q01DX Z (ip), vehicle: water): 116 % of control
T/C (dose: 0.5 mg/kg/injection, schedule: Q01DX001 (ip), vehicle: saline): 107 % of control
T/C (dose: 0.5 mg/kg/injection, schedule: Q01DX006 (iv), vehicle: saline): 116 % of control
T/C (dose: 0.5 mg/kg/injection, schedule: Q01DX009 (ip), vehicle: saline): 111 % of control
T/C (dose: 0.5 mg/kg/injection, schedule: Q01DX Z (ip), vehicle: carboxymethylcellulose (CMC)): 163 % of control
T/C (dose: 0.5 mg/kg/injection, schedule: Q01DX Z (oral), vehicle: saline): 120 % of control
T/C (dose: 0.5 mg/kg/injection, schedule: Q01DX Z (sc), vehicle: saline): 118 % of control
T/C (dose: 0.5 mg/kg/injection, schedule: Q03DX Z (ip), vehicle: saline): 108 % of control
T/C (dose: 0.6 mg/kg/injection, schedule: Q01DX Z (ip), vehicle: water): 156 % of control
T/C (dose: 0.75 mg/kg/injection, schedule: Q01DX009 (ip), vehicle: saline): 94 % of control and 95 % of control
T/C (dose: 0.75 mg/kg/injection, schedule: Q03DX Z (ip), vehicle: saline): 114 % of control
T/C (dose: 1.0 mg/kg/injection, schedule: Q01DX001 (ip), vehicle: saline): 107 % of control
T/C (dose: 1.0 mg/kg/injection, schedule: Q01DX006 (iv), vehicle: saline): 114 % of control
T/C (dose: 1.0 mg/kg/injection, schedule: Q01DX009 (ip), vehicle: saline): 97 % of control
T/C (dose: 1.0 mg/kg/injection, schedule: Q01DX010 (ip), vehicle: saline): 153 % of control
T/C (dose: 1.0 mg/kg/injection, schedule: Q01DX010 (iv), vehicle: saline): 117 % of control
T/C (dose: 1.0 mg/kg/injection, schedule: Q01DX Z (ip), vehicle: carboxymethylcellulose (CMC)): 166 % of control
T/C (dose: 1.0 mg/kg/injection, schedule: Q01DX Z (ip), vehicle: saline): 158 % of control
T/C (dose: 1.0 mg/kg/injection, schedule: Q01DX Z (ip), vehicle: water): 171 % of control
T/C (dose: 1.0 mg/kg/injection, schedule: Q01DX Z (oral), vehicle: saline): 109 % of control
T/C (dose: 1.0 mg/kg/injection, schedule: Q#A X Z (ip), vehicle: saline): 185 % of control
T/C (dose: 1.25 mg/kg/injection, schedule: Q04DX003 (ip), vehicle: Klucel (hydroxypropylcellulose) (HPC)): 113 % of control
T/C (dose: 1.5 mg/kg/injection, schedule: Q03DX Z (ip), vehicle: saline): 120 % of control
T/C (dose: 1.5 mg/kg/injection, schedule: Q#A X Z (ip), vehicle: saline): 104 % of control
T/C (dose: 1.6 mg/kg/injection, schedule: Q01DX Z (ip), vehicle: saline): 196 % of control
T/C (dose: 2.0 mg/kg/injection, schedule: Q01DX001 (ip), vehicle: saline): 100 % of control and 124 % of control
T/C (dose: 2.0 mg/kg/injection, schedule: Q01DX006 (iv), vehicle: saline): 109 % of control
T/C (dose: 2.0 mg/kg/injection, schedule: Q01DX010 (ip), vehicle: saline): 93 % of control
T/C (dose: 2.0 mg/kg/injection, schedule: Q01DX Z (im), vehicle: saline): 94 % of control and 118 % of control
T/C (dose: 2.0 mg/kg/injection, schedule: Q01DX Z (ip), vehicle: saline): 122 % of control
T/C (dose: 2.0 mg/kg/injection, schedule: Q01DX Z (oral), vehicle: saline): 120 % of control
T/C (dose: 2.0 mg/kg/injection, schedule: Q07DX Z (ip), vehicle: saline): 124 % of control
T/C (dose: 2.0 mg/kg/injection, schedule: Q## X Z (ip), vehicle: saline): 98 % of control
T/C (dose: 2.25 mg/kg/injection, schedule: Q#A X Z (ip), vehicle: saline): 93 % of control
T/C (dose: 2.5 mg/kg/injection, schedule: Q01DX001 (ip), vehicle: saline): 116 % of control and 202 % of control
T/C (dose: 3.0 mg/kg/injection, schedule: Q01DX006 (iv), vehicle: saline): 120 % of control
T/C (dose: 3.0 mg/kg/injection, schedule: Q01DX Z (oral), vehicle: saline): 120 % of control
T/C (dose: 3.0 mg/kg/injection, schedule: Q03DX Z (ip), vehicle: saline): 155 % of control
T/C (dose: 3.2 mg/kg/injection, schedule: Q01DX Z (ip), vehicle: saline): 121 % of control
T/C (dose: 4.0 mg/kg/injection, schedule: Q01DX001 (ip), vehicle: saline): 105 % of control
T/C (dose: 4.0 mg/kg/injection, schedule: Q01DX010 (iv), vehicle: saline): 108 % of control
T/C (dose: 4.0 mg/kg/injection, schedule: Q01DX Z (ip), vehicle: saline): 97 % of control
T/C (dose: 4.0 mg/kg/injection, schedule: Q01DX Z (oral), vehicle: saline): 118 % of control and 119 % of control
T/C (dose: 4.5 mg/kg/injection, schedule: Q01DX006 (iv), vehicle: saline): 122 % of control
T/C (dose: 4.5 mg/kg/injection, schedule: Q01DX Z (im), vehicle: saline): 117 % of control
T/C (dose: 4.5 mg/kg/injection, schedule: Q01DX Z (sc), vehicle: saline): 175 % of control
T/C (dose: 4.8 mg/kg/injection, schedule: Q01DX Z (ip), vehicle: saline): 95 % of control
T/C (dose: 5.0 mg/kg/injection, schedule: Q04DX003 (ip), vehicle: Klucel (hydroxypropylcellulose) (HPC)): 96 % of control
T/C (dose: 6.0 mg/kg/injection, schedule: Q03DX Z (ip), vehicle: saline): 152 % of control
T/C (dose: 6.5 mg/kg/injection, schedule: Q01DX006 (iv), vehicle: saline): 170 % of control
T/C (dose: 6.5 mg/kg/injection, schedule: Q01DX Z (sc), vehicle: saline): 157 % of control
T/C (dose: 8.0 mg/kg/injection, schedule: Q01DX001 (ip), vehicle: saline): 109 % of control
T/C (dose: 8.6 mg/kg/injection, schedule: Q03DX Z (ip), vehicle: saline): 194 % of control
T/C (dose: 9.5 mg/kg/injection, schedule: Q01DX006 (iv), vehicle: saline): 157 % of control
T/C (dose: 10.0 mg/kg/injection, schedule: Q04DX003 (ip), vehicle: Klucel (hydroxypropylcellulose) (HPC)): 110 % of control
T/C (dose: 13.0 mg/kg/injection, schedule: Q03DX Z (ip), vehicle: saline): 124 % of control
T/C (dose: 16.0 mg/kg/injection, schedule: Q07DX Z (ip), vehicle: saline): 158 % of control and 213 % of control
T/C (dose: 19.0 mg/kg/injection, schedule: Q03DX Z (ip), vehicle: saline): 93 % of control
T/C (dose: 20.0 mg/kg/injection, schedule: Q04DX003 (ip), vehicle: Klucel (hydroxypropylcellulose) (HPC)): 117 % of control
T/C (dose: 24.0 mg/kg/injection, schedule: Q01DX001 (ip), vehicle: saline): 111 % of control
T/C (dose: 24.0 mg/kg/injection, schedule: Q07DX Z (ip), vehicle: saline): 158 % of control
T/C (dose: 35.0 mg/kg/injection, schedule: Q01DX001 (ip), vehicle: saline): 122 % of control
T/C (dose: 50.0 mg/kg/injection, schedule: Q07DX Z (ip), vehicle: saline): 100 % of control
T/C (dose: 125.0 micrograms/kg/injection, schedule: Q01DX001 (ip), vehicle: saline): 103 % of control
T/C (dose: 125.0 micrograms/kg/injection, schedule: Q01DX Z (ip), vehicle: saline): 107 % of control
T/C (dose: 156.0 micrograms/kg/injection, schedule: Q01DX001 (ip), vehicle: saline): 107 % of control
T/C (dose: 187.0 micrograms/kg/injection, schedule: Q01DX001 (ip), vehicle: saline): 103 % of control
T/C (dose: 250.0 micrograms/kg/injection, schedule: Q01DX Z (ip), vehicle: saline): 101 % of control
T/C (dose: 281.0 micrograms/kg/injection, schedule: Q01DX001 (ip), vehicle: saline): 105 % of control
T/C (dose: 310.0 micrograms/kg/injection, schedule: Q01DX001 (ip), vehicle: saline): 101 % of control
T/C (dose: 421.0 micrograms/kg/injection, schedule: Q01DX001 (ip), vehicle: saline): 116 % of control
T/C (dose: 500.0 micrograms/kg/injection, schedule: Q01DX Z (ip), vehicle: saline): 107 % of control
T/C (dose: 620.0 micrograms/kg/injection, schedule: Q01DX001 (ip), vehicle: saline): 107 % of control
T/C (dose: 1250.0 micrograms/kg/injection, schedule: Q01DX001 (ip), vehicle: saline): 110 % of control
T/C (dose: 2000.0 micrograms/kg/injection, schedule: Q01DX Z (ip), vehicle: saline): 222 % of control
T/C (dose: 4000.0 micrograms/kg/injection, schedule: Q01DX Z (ip), vehicle: saline): 205 % of control

Reference: PubChem BioAssay AID248 (DTP/NCI, 2004)
